# Laboratory results: patent US20230226074A1, “METHODS OF USE FOR PYRIMIDINES AS FERROPORTIN INHIBITORS” (Global Blood Therapeutics, Inc., priority 2020, published 2023)
# Target: T1, human ferroportin (Homo sapiens, UniProt Q9NP59)
# T1 construct: luciferase reporter (probably NanoLuc, inferred from the Nano-Glo Luciferase Assay System read-out); expressed in transfected cells; host or cells: CHO cells, stably transfected, expression induced with doxycycline
# T1 sequence (Q9NP59 1-571): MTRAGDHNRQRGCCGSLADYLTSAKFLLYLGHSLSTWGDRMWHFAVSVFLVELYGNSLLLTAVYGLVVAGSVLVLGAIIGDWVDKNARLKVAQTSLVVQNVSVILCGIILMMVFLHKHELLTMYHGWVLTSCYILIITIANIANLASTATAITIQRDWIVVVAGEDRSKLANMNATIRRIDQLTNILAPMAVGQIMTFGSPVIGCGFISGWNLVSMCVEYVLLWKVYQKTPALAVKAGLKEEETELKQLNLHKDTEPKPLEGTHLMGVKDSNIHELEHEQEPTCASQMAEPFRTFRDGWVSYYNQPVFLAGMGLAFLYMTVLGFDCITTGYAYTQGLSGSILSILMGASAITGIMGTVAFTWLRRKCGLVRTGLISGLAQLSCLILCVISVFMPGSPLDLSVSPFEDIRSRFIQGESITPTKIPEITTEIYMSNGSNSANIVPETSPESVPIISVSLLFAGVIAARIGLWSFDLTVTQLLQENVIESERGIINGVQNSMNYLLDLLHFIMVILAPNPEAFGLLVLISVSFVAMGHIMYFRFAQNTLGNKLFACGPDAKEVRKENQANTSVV
# Assay: In-vitro ferroportin internalization assay (luciferase reporter)
# Format: cell-based
# Conditions: average pEC50; stably-transfected CHO cell line expressing human ferroportin tagged to a luciferase reporter; 6 h incubation with test compound
# Description: The protocol for this assay is generally as described in WO2018/128828, incorporated herein by reference in its entirety. Functional internalization of ferroportin protein was measured using a stably-transfected CHO cell line expressing the human ferroportin tagged to a luciferase reporter. Cells were plated for 24 h in the presence of ferric ammonium citrate (FAC). Ferroportin protein expression was induced with doxycycline for 24 h. The next day, the compounds were added. Test compounds were dissolved in DMSO. Cells were incubated with the test compounds for 6 h, and subsequently luciferase activity was measured using the Nano-Glo Luciferase Assay System and Glomax (Promega, Madison, Wis.). The average pEC50 was determined for the test compounds.
row,pEC50,SMILES
1,4.8,"O=C1C(Nc2cc(C(F)(F)F)nc(-c3ccccn3)n2)CN1c1ccc(F)cc1 (stereo not drawn) [Compound 227, 1-(4-fluorophenyl)-3-{[2-(pyridin-2-yl)-6-(trifluoromethyl)pyrimidin-4-yl]amino}azetidin-2-one]"
2,5.7,"O=C1C(Nc2cc(C(F)(F)F)nc(-c3ccccn3)n2)CCN1c1ccccc1 (stereo not drawn) [Compound 228, 1-phenyl-3-{[2-(pyridin-2-yl)-6-(trifluoromethyl)pyrimidin-4-yl]amino}pyrrolidin-2-one]"
3,<5.0,"Cc1cc(NCCCn2ccnc2)nc(-c2ccccn2)n1 [Compound 229, N-[3-(1H-imidazol-1-yl)propyl]-6-methyl-2-(pyridin-2-yl)pyrimidin-4-amine]"
4,5.3,"CCc1cc(NCCN2CCN(CC)CC2)nc(-c2ccccn2)n1 [Compound 230, 6-ethyl-N-[2-(4-ethylpiperazin-1-yl)ethyl]-2-(pyridin-2-yl)pyrimidin-4-amine]"
5,5.4,"Cc1cc(NCCc2cccnc2)nc(-c2ccccn2)n1 [Compound 231, 6-methyl-2-(pyridin-2-yl)-N-[2-(pyridin-3-yl)ethyl]pyrimidin-4-amine]"
6,5.5,"Cc1cc(NCCC(=O)N2CCCCCC2)nc(-c2ccccn2)n1 [Compound 232, 1-(azepan-1-yl)-3-{[6-methyl-2-(pyridin-2-yl)pyrimidin-4-yl]amino}propan-1-one]"
7,5.2,"Cc1cc(NCCNC(=O)Cc2ccccc2)nc(-c2ccccn2)n1 [Compound 233, N-(2-{[6-methyl-2-(pyridin-2-yl)pyrimidin-4-yl]amino}ethyl)-2-phenylacetamide]"
8,5.4,"CCc1cc(NCCNC(=O)NC2CCCCC2)nc(-c2ccccn2)n1 [Compound 234, 1-cyclohexyl-3-(2-{[6-ethyl-2-(pyridin-2-yl)pyrimidin-4-yl]amino}ethyl)urea]"
9,5.3,"Cc1cc(NCCC(=O)NCc2ccncc2)nc(-c2ccccn2)n1 [Compound 235, 3-{[6-methyl-2-(pyridin-2-yl)pyrimidin-4-yl]amino}-N-[(pyridin-4-yl)methyl]propanamide]"
10,5.4,"CCc1cc(NC2CN(c3ccccc3)C2=O)nc(-c2ccccn2)n1 (stereo not drawn) [Compound 236, 3-{[6-ethyl-2-(pyridin-2-yl)pyrimidin-4-yl]amino}-1-phenylazetidin-2-one]"
11,5.4,"Cc1cc(NC[C@@H](O)CN2CCCCC2)nc(-c2ccccn2)n1 [Compound 237, (2R)-1-{[6-methyl-2-(pyridin-2-yl)pyrimidin-4-yl]amino}-3-(piperidine-1-yl)propan-2-ol]"
12,6.3,"Cc1cc(NC(=O)CN(C)c2nc(-c3ccccn3)nc3scc(-c4ccccc4)c23)no1 [Compound 238, N-(5-methyl-1,2-oxazol-3-yl)-2-{methyl[5-phenyl-2-(pyridin-2-yl)thieno[2,3-d]pyrimidin-4-yl]amino}acetamide]"
13,5.8,"CNC(=O)CN(C)c1nc(-c2ccccn2)nc2sc(-c3ccccc3)cc12 [Compound 239, N-methyl-2-{methyl[6-phenyl-2-(pyridin-2-yl)thieno[2,3-d]pyrimidin-4-yl]amino}acetamide]"
14,<5.0,"CCNC(=O)CN(C)c1nc(-c2ccccn2)nc2sc(-c3ccccc3)cc12 [Compound 240, N-ethyl-2-{methyl[6-phenyl-2-(pyridin-2-yl)thieno[2,3-d]pyrimidin-4-yl]amino}acetamide]"
15,6.3,"COCCNc1nc(-c2ccccn2)nc2sc(C)c(C)c12 [Compound 241, N-(2-methoxyethyl)-5,6-dimethyl-2-(pyridin-2-yl)thieno[2,3-d]pyrimidin-4-amine]"
16,7,"Cc1sc2nc(-c3ccccn3)nc(N(C)CC(=O)Nc3cccc(F)c3)c2c1C [Compound 242, 2-{[5,6-dimethyl-2-(pyridin-2-yl)thieno[2,3-d]pyrimidin-4-yl](methyl)amino}-N-(3-fluorophenyl)acetamide]"
17,6.4,"Cc1sc2nc(-c3ccccn3)nc(NCCNc3ccccn3)c2c1C [Compound 243, N2-[5,6-dimethyl-2-(pyridin-2-yl)thieno[2,3-d]pyrimidin-4-yl]-N1-(pyridin-2-yl)ethane-1,2-diamine]"

# Continued, compound first:
row,SMILES,pEC50
1,"c1ccc(-c2csc3nc(-c4ccccn4)nc(N4CCOCC4)c23)cc1 [Compound 208, 4-[5-phenyl-2-(pyridin-2-yl)thieno[2,3-d]pyrimidin-4-yl]morpholine]",5.9
2,"COCC(C)Nc1nc(-c2ccccn2)nc2sc(C)c(-c3ccccc3)c12 (stereo not drawn) [Compound 209, N-(1-methoxypropan-2-yl)-6-methyl-5-phenyl-2-(pyridin-2-yl)thieno[2,3-d]pyrimidin-4-amine]",6
3,"COCCN(CCOC)c1nc(-c2ccccn2)nc2sc(-c3ccccc3)cc12 [Compound 210, N,N-bis(2-methoxyethyl)-6-phenyl-2-(pyridin-2-yl)thieno[2,3-d]pyrimidin-4-amine]",6.4
4,"COCCN(CCOC)c1nc(-c2ccccn2)nc2scc(-c3ccccc3)c12 [Compound 211, N,N-bis(2-methoxyethyl)-5-phenyl-2-(pyridin-2-yl)thieno[2,3-d]pyrimidin-4-amine]",6.7
5,"COCCNc1nc(-c2ccccn2)nc2scc(-c3ccccc3)c12 [Compound 212, N-(2-methoxyethyl)-5-phenyl-2-(pyridin-2-yl)thieno[2,3-d]pyrimidin-4-amine]",5.9
6,"OCCOCCNc1nc(-c2ccccn2)nc2scc(-c3ccccc3)c12 [Compound 213, 2-(2-{[5-phenyl-2-(pyridin-2-yl)thieno[2,3-d]pyrimidin-4-yl]amino}ethoxy)ethan-1-ol]",5.7
7,"CC(=O)N1CCN(c2nc(-c3ccccn3)nc3scc(-c4ccccc4)c23)CC1 [Compound 214, 1-{4-[5-phenyl-2-(pyridin-2-yl)thieno[2,3-d]pyrimidin-4-yl]piperazin-1-yl}ethan-1-one]",5.8
8,"CC(Nc1nc(-c2ccccn2)nc2scc(-c3ccccc3)c12)C(=O)NC(C)(C)C (stereo not drawn) [Compound 215, N-tert-butyl-2-{[5-phenyl-2-(pyridin-2-yl)thieno[2,3-d]pyrimidin-4-yl]amino}propanamide]",6.8
9,"CNC(=O)CCN(C)c1nc(-c2ccccn2)nc2scc(-c3ccccc3)c12 [Compound 216, N-methyl-3-{methyl[5-phenyl-2-(pyridin-2-yl)thieno[2,3-d]pyrimidin-4-yl]amino}propanamide]",5.7
10,"CNC(=O)CNc1nc(-c2ccccn2)nc2scc(-c3ccccc3)c12 [Compound 217, N-methyl-2-{[5-phenyl-2-(pyridin-2-yl)thieno[2,3-d]pyrimidin-4-yl]amino}acetamide]",5.3
11,"O=C(CNc1nc(-c2ccccn2)nc2scc(-c3ccccc3)c12)NC1CC1 [Compound 218, N-cyclopropyl-2-{[5-phenyl-2-(pyridin-2-yl)thieno[2,3-d]pyrimidin-4-yl]amino}acetamide]",5.5
12,"CCCNC(=O)CNc1nc(-c2ccccn2)nc2scc(-c3ccccc3)c12 [Compound 219, 2-{[5-phenyl-2-(pyridin-2-yl)thieno[2,3-d]pyrimidin-4-yl]amino}-N-propylacetamide]",6
13,"NC(=O)NCCCCNc1nc(-c2ccccn2)nc2scc(-c3ccccc3)c12 [Compound 220, (4-{[5-phenyl-2-(pyridin-2-yl)thieno[2,3-d]pyrimidin-4-yl]amino}butyl)urea]",6
14,"O=C1CCN(c2nc(-c3ccccn3)nc3scc(-c4ccccc4)c23)CC1 [Compound 221, 1-[5-phenyl-2-(pyridin-2-yl)thieno[2,3-d]pyrimidin-4-yl]piperidin-4-one]",6
15,"OC1CCN(c2nc(-c3ccccn3)nc3scc(-c4ccccc4)c23)CC1 [Compound 222, 1-[5-phenyl-2-(pyridin-2-yl)thieno[2,3-d]pyrimidin-4-yl]piperidin-4-ol]",6
16,"CN(CCO)c1nc(-c2ccccn2)nc2sc(-c3ccccc3)cc12 [Compound 223, 2-{methyl[6-phenyl-2-(pyridin-2-yl)thieno[2,3-d]pyrimidin-4-yl]amino}ethan-1-ol]",5.6
17,"OCCN1CCN(c2nc(-c3ccccn3)nc3scc(-c4ccccc4)c23)CC1 [Compound 224, 2-{4-[5-phenyl-2-(pyridin-2-yl)thieno[2,3-d]pyrimidin-4-yl]piperazin-1-yl}ethan-1-ol]",5.3
18,"OCCNc1nc(-c2ccccn2)nc2scc(-c3ccccc3)c12 [Compound 225, 2-{[5-phenyl-2-(pyridin-2-yl)thieno[2,3-d]pyrimidin-4-yl]amino}ethan-1-ol]",5.3
19,"CS(=O)(=O)CCNc1nc(-c2ccccn2)nc2scc(-c3ccccc3)c12 [Compound 226, N-(2-methanesulfonylethyl)-5-phenyl-2-(pyridin-2-yl)thieno[2,3-d]pyrimidin-4-amine]",5.8
